# Measured values: the supplement of paper PMC11208160
# Test: recombinant UMI read abundance after kanamycin selection (control-corrected) (log10(CPM+1)); higher = more efficient recombination; extreme values may be limits of the assay; sequences stand for … in AGTGCAGAGAAAATCGGCCAGTTTTCTCTGCCTGCAGTCCGCATGCCGTGGGACCCCTTGGGTTCTAACCTGTTGCCTAGATTTATGCAGCGGACTGCCTTTCTCCCAAAGTGATAAACCGG…AGGTTGGTTTCACT; site = the 11-nt donor
# In short: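 Each donor and donor-binding-loop pair was tracked by a 12-nt UMI on a plasmid carrying a promoterless kanamycin gene. With a second plasmid supplying a fixed target and T7-inducible IS621 bridge recombinase, the pool was plated in Escherichia coli on IPTG (0.07 mM) plus kanamycin or unselected. Sequencing of recombinant UMIs across the donor–target junction gave counts expressed as log10(CPM+1) after replicate averaging and control-derived scaling.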
row,Sequence,recombinant UMI read abundance (log10)
1,AAGGTAACATGGACCGGTTTTCCCGGTAATCCGTATTTGCT (site AACGTAACTAG),0.731
2,CAATGGCCATGGACCGGTTTTCCCGGTAATCCGTATTTGCA (site GAATGGCCTTG),0
3,TGTTTGGCATGGACCGGTTTTCCCGGTAATCCGTATTTGTG (site TATTTGGCTCA),0.0286
4,GCGAAAACATGGACCGGTTTTCCCGGTAATCCGTATTTGCT (site GCGAAAACTCG),0
5,CCGACATCATGGACCGGTTTTCCCGGTAATCCGTATTTGCT (site CCGACATCTAG),0.421
6,CACTTGGCATGGACCGGTTTTCCCGGTAATCCGTATTTGGA (site CACTTAGCTTC),1.14
7,CACTAGGCATGGACCGGTTTTCCCGGTAATCCGTATTTGTA (site CACTAGGCTTA),1.42
8,TACGGCCCATGGACCGGTTTTCCCGGTAATCCGTATTTGTT (site TACGGCCCTAA),0.00191
9,TAGAACACATGGACCGGTTTTCCCGGTAATCCGTATTTGCA (site TAGAAGACTTG),0.271
10,ACCATATCATGGACCGGTTTTCCCGGTAATCCGTATTTGTC (site ACCATATCTGA),2.03
11,CAGGGTCCATGGACCGGTTTTCCCGGTAATCCGTATTTGGA (site CAGGGTCCTTC),0.288
12,CGAGTCACATGGACCGGTTTTCCCGGTAATCCGTATTTGGG (site CTAGTCACTCC),0.00855
13,CTCTACACATGGACCGGTTTTCCCGGTAATCCGTATTTGCT (site CTCTACACTAC),0.0172
14,AGGAAACCATGGACCGGTTTTCCCGGTAATCCGTATTTGTT (site AGGAAACCTAA),0
15,CGTGTGGCATGGACCGGTTTTCCCGGTAATCCGTATTTGCT (site CGTGTGGCTAG),3.26
16,CCGTTTACATGGACCGGTTTTCCCGGTAATCCGTATTTGCC (site CCGTTTACTAG),0
17,ACGTTCACATGGACCGGTTTTCCCGGTAATCCGTATTTGCC (site ACGTTCACTGG),2.69
18,CGTAATACATGGACCGGTTTTCCCGGTAATCCGTATTTGTT (site CGGAATCCTAA),0
19,CACATATCATGGACCGGTTTTCCCGGTAATCCGTATTTGTC (site CTCATATCTGA),0
20,GTAAAAGCATGGACCGGTTTTCCCGGTAATCCGTATTTGCC (site GTAAAAGCTGG),1.27
21,ATAAGGCCATGGACCGGTTTTCCCGGTAATCCGTATTTGAC (site ATAAGGCCTGT),0
22,AATAATGCATGGACCGGTTTTCCCGGTAATCCGTATTTGGA (site AATGATGCTTC),0.361
23,GTTAAGGCATGGACCGGTTTTCCCGGTAATCCGTATTTGTC (site GTTAAGGCTGA),2.82
24,GTATGCGCATGGACCGGTTTTCCCGGTAATCCGTATTTGTA (site GTATGCCCTTA),0.772
25,TATTGGGCATGGACCGGTTTTCCCGGTAATCCGTATTTGTG (site TATTGGGCTCA),0.226

row,Sequence,recombinant UMI read abundance (log10)
1,AGGACGGCATGGACCGGTTTTCCCGGTAATCCGTATTTGCA (site AGGAAGACTTG),0
2,GAAAATTCATGGACCGGTTTTCCCGGTAATCCGTATTTGTT (site GAATATTCTAA),1.79
3,GGATCGCCATGGACCGGTTTTCCCGGTAATCCGTATTTGCG (site GGATCGCCTCG),0.0649
4,GGCTTCCCATGGACCGGTTTTCCCGGTAATCCGTATTTGTC (site GGCTTCCCTGA),0
5,AGGCGTTCATGGACCGGTTTTCCCGGTAATCCGTATTTGTG (site AGGCGTTCTCA),1.09
6,GGCCACCCATGGACCGGTTTTCCCGGTAATCCGTATTTGTT (site GGTCACCCTAA),0.0101
7,ACACCTACATGGACCGGTTTTCCCGGTAATCCGTATTTGTG (site ACATCTACTCA),0.028
8,ACTCGAACATGGACCGGTTTTCCCGGTAATCCGTATTTGAG (site ACTCGAACTCT),1.16
9,GGCGACCCATGGACCGGTTTTCCCGGTAATCCGTATTTGCC (site GGCGACCCTGG),0
10,CACATCCCATGGACCGGTTTTCCCGGTAATCCGTATTTGCA (site CACATCCCTTG),2
11,CGCAACTCATGGACCGGTTTTCCCGGTAATCCGTATTTGAC (site CGCAACTCTGT),2.04
12,GTAGGTACATGGACCGGTTTTCCCGGTAATCCGTATTTGAG (site GTAGGTACTGT),1.42
13,CAGCACGCATGGACCGGTTTTCCCGGTAATCCGTATTTGGG (site AAGCACGCTCC),0.012
14,CGGTCATCATGGACCGGTTTTCCCGGTAATCCGTATTTGCT (site CGCTCATCTAG),0
15,TGGTAGGCATGGACCGGTTTTCCCGGTAATCCGTATTTGGT (site TGCTAGGCTAC),0.00286
16,CGATCATCATGGACCGGTTTTCCCGGTAATCCGTATTTGAC (site CGATCATCTGT),1.49
17,GTTATAACATGGACCGGTTTTCCCGGTAATCCGTATTTGGC (site GTTATAACTGC),1.28
18,AAGCACTCATGGACCGGTTTTCCCGGTAATCCGTATTTGGG (site AAGCACACTCC),0.0075
19,GGGCCAACATGGACCGGTTTTCCCGGTAATCCGTATTTGTA (site GGGCCAACTTA),0.645
20,TAGAATACATGGACCGGTTTTCCCGGTAATCCGTATTTGCT (site TAGAATACTCG),0.00353
21,TATTTTGCATGGACCGGTTTTCCCGGTAATCCGTATTTGTG (site TATTTGGCTCA),0
22,CGATTACCATGGACCGGTTTTCCCGGTAATCCGTATTTGAT (site CGATTACCTAT),0
23,CCAGGTGCATGGACCGGTTTTCCCGGTAATCCGTATTTGAT (site CCTGGTGCTAT),0
24,CACTTGGCATGGACCGGTTTTCCCGGTAATCCGTATTTGGA (site CACTGGGCTTC),0.0362
25,GGTCCACCATGGACCGGTTTTCCCGGTAATCCGTATTTGTA (site GGTCCACCTTA),0.0126

row,Sequence,recombinant UMI read abundance (log10)
1,CTATTATCATGGACCGGTTTTCCCGGTAATCCGTATTTGAC (site CTATTATCTGT),2.82
2,CCCGGTCCATGGACCGGTTTTCCCGGTAATCCGTATTTGCA (site CCCTGTCCTTG),0.00802
3,GTTGTCGCATGGACCGGTTTTCCCGGTAATCCGTATTTGCG (site GTGGTCGCTCG),0.009
4,ACAGCATCATGGACCGGTTTTCCCGGTAATCCGTATTTGTA (site ACAGCATCTTA),2.85
5,CTACTTACATGGACCGGTTTTCCCGGTAATCCGTATTTGGA (site CTACTGACTTC),0.0111
6,ATCGTTCCATGGACCGGTTTTCCCGGTAATCCGTATTTGTT (site ATCGTTCCTAA),0.568
7,TAAGCTGCATGGACCGGTTTTCCCGGTAATCCGTATTTGCC (site TAAGCTGCTGG),1.94
8,AGGAAGACATGGACCGGTTTTCCCGGTAATCCGTATTTGCA (site GGGAAGACTTC),0
9,GCACATCCATGGACCGGTTTTCCCGGTAATCCGTATTTGAC (site CCACATCCTGT),0
10,ACTAGTCCATGGACCGGTTTTCCCGGTAATCCGTATTTGGT (site ACTAGTCCTAC),0.00473
11,GTAGTGGCATGGACCGGTTTTCCCGGTAATCCGTATTTGCG (site GTAGTTGCTCG),2.06
12,CTCGAGTCATGGACCGGTTTTCCCGGTAATCCGTATTTGTG (site CTCGAGTCTCA),1.87
13,CACTCTTCATGGACCGGTTTTCCCGGTAATCCGTATTTGCC (site CACTCATCTGG),1.6
14,AGGGATCCATGGACCGGTTTTCCCGGTAATCCGTATTTGAG (site AGGGATCCTCT),0.635
15,TGCTAGGCATGGACCGGTTTTCCCGGTAATCCGTATTTGAT (site TGCTAGGCTAG),0
16,GTAGGTACATGGACCGGTTTTCCCGGTAATCCGTATTTGAC (site CTAGGTACTGT),1.95
17,GCGCATGCATGGACCGGTTTTCCCGGTAATCCGTATTTGGT (site GGGCATGCTAC),0.0133
18,AGGAATGCATGGACCGGTTTTCCCGGTAATCCGTATTTGCA (site AGGAATGCTTG),1.74
19,GAAAGGCCATGGACCGGTTTTCCCGGTAATCCGTATTTGCA (site GAAAGGCCTTG),0
20,ACTCTCCCATGGACCGGTTTTCCCGGTAATCCGTATTTGGA (site ACTCTCCCTTC),0.0237
21,TACCACCCATGGACCGGTTTTCCCGGTAATCCGTATTTGCT (site TACCACCCTAG),0.83
22,TGTTCCCCATGGACCGGTTTTCCCGGTAATCCGTATTTGTC (site TGTTCCCCTCA),0.00896
23,GTGCAGGCATGGACCGGTTTTCCCGGTAATCCGTATTTGGT (site GTGCACGCTAC),0.00349
24,CGGATTCCATGGACCGGTTTTCCCGGTAATCCGTATTTGTT (site CGGACTCCTAA),0.0161
25,GGTGCGACATGGACCGGTTTTCCCGGTAATCCGTATTTGTT (site GGTGCGACTAA),0.345
